Values of other authors in US6987129B2, “Compounds and methods for the treatment of urogenital disorders” (Cellegy Pharmaceuticals, Inc., priority 2001, dated 2006).

How the values were obtained:
women with FSAD = conditions: human, in vivo
[1] = in vivo

| SMILES | efficacy in a larger clinical trial including other patients suffering from FSAD (women with FSAD) | efficacy in women with spinal cord injury and in women using antidepressants such as serotonin reuptake inhibitors (women with FSAD) | excretion [1] | metabolism by the liver [1] |
| --- | --- | --- | --- | --- |
| CCCc1nn(C)c2c(=O)[nH]c(-c3cc(S(=O)(=O)N4CCN(C)CC4)ccc3OCC)nc12 [Sildenafil] | failed to show efficacy | demonstrated efficacy | – | – |
| Cn1c(=O)c2c(ncn2CC(O)CO)n(C)c1=O (stereo not shown) [dyphylline] | – | – | excreted unchanged by the kidneys | not metabolized by the liver |
